Reference: the Kinase Knowledgebase extract (Sharma et al. 2016)

Biological target: EGFR (UniProt P00533)
Assay: Inhibition of EGFR Kinase Activity

Sequence of EGFR (P00533 whole entry, looked up): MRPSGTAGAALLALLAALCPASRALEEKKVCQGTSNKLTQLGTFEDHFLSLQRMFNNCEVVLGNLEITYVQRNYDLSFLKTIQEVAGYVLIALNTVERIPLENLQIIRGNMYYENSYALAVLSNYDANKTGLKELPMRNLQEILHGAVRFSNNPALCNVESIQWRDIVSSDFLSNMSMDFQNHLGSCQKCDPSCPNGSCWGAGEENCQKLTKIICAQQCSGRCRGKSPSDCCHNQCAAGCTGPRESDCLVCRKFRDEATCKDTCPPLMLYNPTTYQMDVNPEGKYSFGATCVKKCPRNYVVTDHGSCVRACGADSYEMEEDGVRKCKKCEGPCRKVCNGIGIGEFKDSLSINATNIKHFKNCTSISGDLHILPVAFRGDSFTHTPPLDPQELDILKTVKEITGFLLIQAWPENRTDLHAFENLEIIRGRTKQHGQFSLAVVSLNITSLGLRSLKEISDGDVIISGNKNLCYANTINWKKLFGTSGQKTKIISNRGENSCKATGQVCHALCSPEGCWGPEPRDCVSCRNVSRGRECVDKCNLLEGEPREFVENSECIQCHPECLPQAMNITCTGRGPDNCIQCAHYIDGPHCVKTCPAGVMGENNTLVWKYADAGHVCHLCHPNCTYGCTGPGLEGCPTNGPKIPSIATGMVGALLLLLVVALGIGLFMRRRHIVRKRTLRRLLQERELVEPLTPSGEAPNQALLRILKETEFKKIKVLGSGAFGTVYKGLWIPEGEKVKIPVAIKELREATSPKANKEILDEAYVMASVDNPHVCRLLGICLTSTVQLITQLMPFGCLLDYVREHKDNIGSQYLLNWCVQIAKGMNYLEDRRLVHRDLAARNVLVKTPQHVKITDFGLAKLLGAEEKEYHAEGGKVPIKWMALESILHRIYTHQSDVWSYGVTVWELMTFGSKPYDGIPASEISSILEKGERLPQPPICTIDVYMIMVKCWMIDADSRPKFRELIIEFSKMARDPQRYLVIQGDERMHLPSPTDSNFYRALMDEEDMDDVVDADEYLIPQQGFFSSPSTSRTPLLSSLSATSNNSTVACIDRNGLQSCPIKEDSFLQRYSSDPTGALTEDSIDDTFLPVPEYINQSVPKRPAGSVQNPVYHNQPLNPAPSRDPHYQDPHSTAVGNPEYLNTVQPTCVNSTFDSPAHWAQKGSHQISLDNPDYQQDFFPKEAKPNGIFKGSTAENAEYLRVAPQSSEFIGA

| SMILES | IC50 [µM] |
| --- | --- |
| CC#CC(=O)Nc1cc(Nc2ncnc(N(C)c3ccc4c(cnn4Cc4ccccc4)c3)n2)ccc1OC | < 50 |
| CC#CC(=O)Nc1cccc(Nc2ncnc(N(C)c3ccc(OCC)c(OCC)c3)n2)c1 | < 50 |
| CC#CC(=O)Nc1cccc(Nc2ncnc(N(CC)c3ccc(OCC)c(OCC)c3)n2)c1 | < 50 |
| C=CCN(c1ccc(OC)c(OC)c1)c1ncnc(Nc2ccc(NC(=O)C=C)cc2)n1 | < 50 |
| C=CC(=O)N(CCCN1CCOCC1)c1cccc(Nc2ncnc(Nc3cccc4ccccc34)n2)c1 | < 50 |
| CC#CC(=O)Nc1cccc(Nc2ncnc(Nc3cccc(CC(=O)OC)c3)n2)c1 | < 50 |
| CC#CC(=O)Nc1cccc(Nc2ncnc(Nc3ccc(OCc4ccccc4)c(Cl)c3)n2)c1 | < 50 |
| CC#CC(=O)Nc1cc(Nc2ncnc(Nc3cccc(Cl)c3)n2)ccc1OCCCN1CCOCC1 | < 50 |
| CC#CC(=O)Nc1cccc(Nc2ncnc(n2)N(C)c3ccc4NN(=Cc4c3)Cc5ccccn5)c1 | < 50 |
| C=CC(=O)Nc1cccc(Nc2ncnc(N(C)C3CC3c3ccccc3)n2)c1 (stereo not given) | < 50 |
| C=CC(=O)Nc1cc(Nc2ncnc(Nc3ccc(OCc4ccccc4)c(Cl)c3)n2)ccc1OCCCN1CCOCC1 | < 50 |
| C=CCN(c1cccc(S(=O)(=O)c2ccc([N+](=O)[O-])cc2)c1)c1ncnc(Nc2cccc(NC(=O)C#CC)c2)n1 | < 50 |
| C=CC(=O)Nc1cccc(Nc2ncnc(N(CC)c3ccc(OC)c(OC)c3)n2)c1 | < 50 |
| C=CC(=O)Nc1cccc(Nc2ncnc(NN3CCCc4c(Cl)cccc43)n2)c1 | < 50 |
| C=CC(=O)Nc1cccc(Nc2ncnc(N3CCCc4ccc(Cl)cc43)n2)c1 | < 50 |
| C=CC(=O)N(CCCN1CCOCC1)c2cccc(Nc3ncnc(Nc4ccc5NN(=Cc5c4)Cc6ccccn6)n3)c2 | < 50 |
| CC#CC(=O)Nc1cccc(Nc2ncnc(N(C)C3CC3c3ccc(Cl)cc3)n2)c1 (stereo not given) | < 50 |
| C=CCN(c1cccc(C)c1)c1ncnc(Nc2cccc(NC(=O)C#CC)c2)n1 | < 50 |
| C=CC(=O)Nc1ccc(Nc2ncnc(Nc3ccc(C(=O)OC)cc3)n2)cc1 | < 50 |
| CC#CC(=O)Nc1cccc(Nc2ncnc(N(C)c3ccc(OCCOC)c(OC)c3)n2)c1 | < 50 |
| C=CCN(c1ncnc(Nc2cccc(NC(=O)C=C)c2)n1)c1cc(Cl)ccc1C | < 50 |
| C=CC(=O)Nc1cccc(Nc2ncnc(Nc3cc(OC)c(OC)c(OCCN4CCOCC4)c3)n2)c1 | < 50 |
| CC#CC(=O)Nc1cccc(Nc2ncnc(Nc3cccc(S(=O)(=O)c4ccc([N+](=O)[O-])cc4)c3)n2)c1 | < 50 |
| C=CCN(c1ccc(OCCC)c(OCCC)c1)c1ncnc(Nc2cccc(NC(=O)C=C)c2)n1 | < 50 |

| SMILES | IC50 [µM] |
| --- | --- |
| C=CC(=O)Nc1cccc(Nc2ncnc(Nc3ccc(OCc4cccc(F)c4)c(Cl)c3)n2)c1 | < 50 |
| C=CC(=O)Nc1cccc(Nc2ncnc(NC3CC3c3ccc(Cl)cc3)n2)c1 (stereo not given) | < 50 |
| CC#CC(=O)Nc1cccc(Nc2ncnc(N(CC)c3cccc(C)c3)n2)c1 | < 50 |
| C=CC(=O)Nc1ccc(Nc2ncnc(N(C)c3ccc4c(ccn4Cc4ccccc4)c3)n2)cc1 | < 50 |
| C=CCN(c1ccc(OCCC)c(OCCC)c1)c1ncnc(Nc2ccc(NC(=O)C=C)cc2)n1 | < 50 |
| CC#CC(=O)Nc1cc(Nc2ncnc(N(C)c3cccc(Cl)c3)n2)ccc1OCCCN1CCOCC1 | < 50 |
| C=CCN(c1ccc(OC)c(OCCOC)c1)c1ncnc(Nc2cccc(NC(=O)C#CC)c2)n1 | < 50 |
| C=CC(=O)Nc1ccc(Nc2ncnc(N(C)c3ccc(OCC)c(OCC)c3)n2)cc1 | < 50 |
| C=CC(=O)Nc1cccc(Nc2ncnc(N(C)c3ccc4c(ccn4Cc4ccccc4)c3)n2)c1 | < 50 |
| C=CCN(c1ncnc(Nc2cccc(NC(=O)C#CC)c2)n1)c1cc(Cl)ccc1C | < 50 |
| C=CC(=O)Nc1cccc(Nc2ncnc(Nc3cccc4ccccc34)n2)c1 | < 50 |
| C#CCC(=O)Nc1cccc(Nc2ncnc(NN3CCCc4ccc(C(F)(F)F)cc43)n2)c1 | < 50 |
| C=CC(=O)Nc1ccc(Nc2ncnc(N(C)c3ccc(OCCC)c(OCCC)c3)n2)cc1 | < 50 |
| C=CC(=O)Nc1ccc(Nc2ncnc(N(CC)c3ccc(OCCOC)c(OC)c3)n2)cc1 | < 50 |
| C=CC(=O)Nc1cccc(Nc2ncnc(NN3CCCc4ccc(Cl)cc43)n2)c1 | < 50 |
| CC#CC(=O)Nc1cccc(Nc2ncnc(N(CC)c3ccc(OCCO)cc3)n2)c1 | < 50 |
| C=CC(=O)Nc1ccc(Nc2ncnc(N(CC)c3ccc(OC)c(OC)c3)n2)cc1 | < 50 |
| C=CCN(c1ccc(OCCOC)c(OC)c1)c1ncnc(Nc2cccc(NC(=O)C#CC)c2)n1 | < 50 |
| C=CCN(c1ccc(F)c(Cl)c1)c1ncnc(Nc2cccc(NC(=O)C=C)c2)n1 | < 50 |
| C=CC(=O)Nc1ccc(Nc2ncnc(N(CC)c3ccc(C(=O)OC)cc3)n2)cc1 | < 50 |
| C=CC(=O)Nc1ccc(Nc2ncnc(N(CC)c3ccc(OCc4ccccc4)cc3)n2)cc1 | < 50 |
| CC#CC(=O)Nc1cccc(Nc2ncnc(N(CC)c3ccc(OCc4ccccc4)cc3)n2)c1 | < 50 |
| C=CC(=O)N(OCCCN1CCOCC1)c1cccc(Nc2ncnc(NN3CCCc4ccc(Cl)cc43)n2)c1 | < 50 |
| CC#CC(=O)Nc1cccc(Nc2ncnc(Nc3cccc4ccccc34)n2)c1 | < 50 |

| SMILES | IC50 [µM] |
| --- | --- |
| C=CC(=O)Nc1cccc(Nc2ncnc(Nc3ccc(OC)c(OCCOC)c3)n2)c1 | < 50 |
| C=CC(=O)Nc1cccc(Nc2ncnc(N(CC)C3CC3c3ccc(Cl)cc3)n2)c1 (stereo not given) | < 50 |
| C=CC(=O)Nc1cccc(Nc2ncnc(NN3CCCc4cc(C)ccc43)n2)c1 | < 50 |
| CC#CC(=O)Nc1cccc(Nc2ncnc(N(C)c3ccc(C(=O)OC)cc3)n2)c1 | < 50 |
| C=CC(=O)Nc1ccc(Nc2ncnc(N(C)C3CC3c3ccccc3)n2)cc1 (stereo not given) | < 50 |
| C=CC(=O)Nc1cccc(Nc2ncnc(N(C)c3cccc(Cl)c3)n2)c1 | < 50 |
| C=CC(=O)Nc1cccc(Nc2ncnc(Nc3ccc(OCc4cccc(C(F)(F)F)c4)c(OC)c3)n2)c1 | < 50 |
| C=CCN(c1ncnc(Nc2cccc(NC(=O)C#CC)c2)n1)C1CC1c1ccccc1 (stereo not given) | < 50 |
| CC#CC(=O)Nc1cccc(Nc2ncnc(Nc3ccc(OC)c(OC)c3)n2)c1 | < 50 |
| C=CCN(c1ccc(C(=O)OC)cc1)c1ncnc(Nc2cccc(NC(=O)C#CC)c2)n1 | < 50 |
| C=CC(=O)Nc1cc(Nc2ncnc(Nc3cccc(Cl)c3)n2)ccc1OCCCN1CCOCC1 | < 50 |
| C=CC(=O)Nc1ccc(Nc2ncnc(Nc3ccc4c(cnn4Cc4ccccc4)c3)n2)cc1 | < 50 |
| C=CC(=O)Nc1cccc(Nc2ncnc(Nc3cc(Cl)cc4ccccc34)n2)c1 | < 50 |
| C#CCC(=O)Nc1cccc(Nc2ncnc(NN3CCCc4cc(Cl)ccc43)n2)c1 | < 50 |
| C=CC(=O)Nc1ccc(Nc2ncnc(Nc3cc(OC)c(OC)c(OC)c3)n2)cc1 | < 50 |
| C=CC(=O)Nc1cccc(Nc2ncnc(N(CC)c3cc(Cl)ccc3C)n2)c1 | < 50 |
| C=CC(=O)Nc1ccc(Nc2ncnc(Nc3ccc(OC)c(OC)c3)n2)cc1 | < 50 |
| C=CC(=O)Nc1cccc(Nc2ncnc(N(CC)c3cccc(S(=O)(=O)c4ccc([N+](=O)[O-])cc4)c3)n2)c1 | < 50 |
| CC#CC(=O)Nc1cccc(Nc2ncnc(N(CC)c3ccc(OCCOC)c(OC)c3)n2)c1 | < 50 |
| C=CC(=O)Nc1ccc(Nc2ncnc(N(C)c3ccc(C(=O)OC)cc3)n2)cc1 | < 50 |
| C=CCN(c1cccc(CC(=O)OC)c1)c1ncnc(Nc2cccc(NC(=O)C#CC)c2)n1 | < 50 |
| C=CC(=O)Nc1cccc(Nc2ncnc(Nc3ccc(OC)c(OC)c3)n2)c1 | < 50 |
